Each block holds one compound with its values, some of them ahead of it. Active and inactive are the calls of the source. No cut-off for these calls is given here.
What was measured:
[1] = biological target: T1, Protein cereblon/Eukaryotic elongation factor 2 kinase (Homo sapiens) (UniProt O00418+Q96SW2); test: Protac activity at eEF2K/E3 ubiquitin ligase in human MDA-MB-231 cells assessed as degradation of eEF2K at 200 uM measured after 24 hrs by western blot assay; format: cell-based
[2] = biological target: T2, Eukaryotic elongation factor 2 kinase (Homo sapiens, UniProt O00418); test: Inhibition of eEF2K (unknown origin)
T2 sequence (O00418 whole entry): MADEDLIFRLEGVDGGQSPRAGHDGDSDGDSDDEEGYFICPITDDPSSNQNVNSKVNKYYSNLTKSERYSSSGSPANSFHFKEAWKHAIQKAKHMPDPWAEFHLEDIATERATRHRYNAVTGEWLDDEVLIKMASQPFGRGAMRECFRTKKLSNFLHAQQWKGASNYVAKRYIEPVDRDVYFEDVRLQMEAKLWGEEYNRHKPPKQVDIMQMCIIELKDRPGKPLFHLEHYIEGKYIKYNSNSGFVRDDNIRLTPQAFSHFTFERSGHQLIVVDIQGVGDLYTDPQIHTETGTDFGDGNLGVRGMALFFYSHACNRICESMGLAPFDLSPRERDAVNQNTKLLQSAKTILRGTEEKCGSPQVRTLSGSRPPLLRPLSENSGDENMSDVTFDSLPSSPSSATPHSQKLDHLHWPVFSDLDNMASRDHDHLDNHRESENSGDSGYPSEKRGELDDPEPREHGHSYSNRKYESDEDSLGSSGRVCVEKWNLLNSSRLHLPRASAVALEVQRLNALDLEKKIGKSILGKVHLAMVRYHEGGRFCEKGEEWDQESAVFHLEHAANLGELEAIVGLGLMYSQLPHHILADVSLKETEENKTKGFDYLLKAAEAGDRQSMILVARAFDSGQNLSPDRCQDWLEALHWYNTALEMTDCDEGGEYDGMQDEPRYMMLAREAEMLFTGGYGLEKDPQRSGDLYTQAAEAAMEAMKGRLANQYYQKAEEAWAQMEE

[3] = test system: MDA-MB-231; test: Antiproliferative activity against human MDA-MB-231 cells at 100 uM measured by crystal violet staining based colony forming assay; format: functional, cell-based
[4] = test system: MDA-MB-231; test: Induction of apoptosis in human MDA-MB-231 cells at 100 uM measured after 24 hrs by Hoechst staining based fluorescence microscopic method; format: functional, cell-based
[5] = test system: MDA-MB-231; test: Induction of apoptosis in human MDA-MB-231 cells assessed as viable cells at 200 uM measured after 24 hrs by Annexin V/PI staining based flowcytometry method (reference value: 94.63%); format: functional; settings: read-out: Activity
[6] = test system: MDA-MB-231; test: Induction of apoptosis in human MDA-MB-231 cells assessed as late apoptotic cells at 100 uM measured after 24 hrs by Annexin V/PI staining based flowcytometry method (reference value: 1.81%); format: functional
[7] = biological target: T1, Protein cereblon/Eukaryotic elongation factor 2 kinase (Homo sapiens); test: Protac activity at eEF2K/E3 ubiquitin ligase in human MDA-MB-231 cells assessed as degradation of p-eEF2K measured after 24 hrs by western blot assay; format: cell-based; settings: dose 50-200 µM
[8] = test system: MDA-MB-231; test: Induction of apoptosis in human MDA-MB-231 cells assessed as necrotic cells at 100 uM measured after 24 hrs by Annexin V/PI staining based flowcytometry method (reference value: 0.44%); format: functional
[9] = test system: MDA-MB-231; test: Induction of apoptosis in human MDA-MB-231 cells assessed as necrotic cells at 50 uM measured after 24 hrs by Annexin V/PI staining based flowcytometry method (reference value: 0.44%); format: functional
[10] = test system: MDA-MB-231; test: Induction of apoptosis in human MDA-MB-231 cells assessed as early apoptotic cells at 200 uM measured after 24 hrs by Annexin V/PI staining based flowcytometry method (reference value: 3.12%); format: functional
[11] = test system: MDA-MB-231; test: Induction of apoptosis in human MDA-MB-231 cells assessed as necrotic cells at 200 uM measured after 24 hrs by Annexin V/PI staining based flowcytometry method (reference value: 0.44%); format: functional
[12] = test system: MDA-MB-231; test: Induction of apoptosis in human MDA-MB-231 cells assessed as late apoptotic cells at 50 uM measured after 24 hrs by Annexin V/PI staining based flowcytometry method (reference value: 1.81%); format: functional
[13] = test system: MDA-MB-231; test: Induction of apoptosis in human MDA-MB-231 cells assessed as viable cells at 100 uM measured after 24 hrs by Annexin V/PI staining based flowcytometry method (reference value: 94.63%); format: functional; settings: read-out: Activity
[14] = test system: MDA-MB-231; test: Induction of apoptosis in human MDA-MB-231 cells assessed as early apoptotic cells at 100 uM measured after 24 hrs by Annexin V/PI staining based flowcytometry method (reference value: 3.12%); format: functional
[15] = biological target: T1, Protein cereblon/Eukaryotic elongation factor 2 kinase (Homo sapiens); test: Protac activity at eEF2K/E3 ubiquitin ligase in human MDA-MB-231 cells assessed as degradation of eEF2K measured after 24 hrs by western blot assay; format: cell-based; settings: dose 50-200 µM
[16] = test system: MDA-MB-231; test: Induction of apoptosis in human MDA-MB-231 cells assessed as late apoptotic cells at 200 uM measured after 24 hrs by Annexin V/PI staining based flowcytometry method (reference value: 1.81%); format: functional
[17] = test system: MDA-MB-231; test: Induction of apoptosis in human MDA-MB-231 cells assessed as viable cells at 50 uM measured after 24 hrs by Annexin V/PI staining based flowcytometry method (reference value: 94.63%); format: functional; settings: read-out: Activity
[18] = test system: MDA-MB-231; test: Induction of apoptosis in human MDA-MB-231 cells assessed as upregulation of cleaved caspase3 expression at 50 to 200 uM measured after 24 hrs by western blot assay; format: functional, cell-based; settings: dose 50-200 µM
[19] = biological target: T1, Protein cereblon/Eukaryotic elongation factor 2 kinase (Homo sapiens); test: Protac activity at eEF2K/E3 ubiquitin ligase in human MDA-MB-231 cells assessed as degradation of eEF2K at 100 uM pretreated with MG-132 for 2 hrs followed by compound addition measured after 8 hrs by western blot assay; format: cell-based
[20] = test system: MDA-MB-231; test: Induction of apoptosis in human MDA-MB-231 cells assessed as decrease in Bcl2 expression at 50 to 200 uM measured after 24 hrs by western blot assay; format: functional, cell-based; settings: dose 50-200 µM
[21] = biological target: T1, Protein cereblon/Eukaryotic elongation factor 2 kinase (Homo sapiens); test: Protac activity at eEF2K/E3 ubiquitin ligase in human MDA-MB-231 cells assessed as degradation of eEF2K at 12.5 to 200 uM measured after 24 hrs by western blot assay; format: cell-based; settings: dose 12.5-200 µM
[22] = test system: MDA-MB-231; test: Induction of apoptosis in human MDA-MB-231 cells assessed as early apoptotic cells at 50 uM measured after 24 hrs by Annexin V/PI staining based flowcytometry method (reference value: 3.12%); format: functional
[23] = test system: MDA-MB-231; test: Induction of apoptosis in human MDA-MB-231 cells assessed as upregulation of Bax expression at 50 to 200 uM measured after 24 hrs by western blot assay; format: functional, cell-based; settings: dose 50-200 µM
[24] = test system: MCF-10A; test: Cytotoxicity against human MCF-10A cells; format: cell-based
[25] = biological target: T1, Protein cereblon/Eukaryotic elongation factor 2 kinase (Homo sapiens); test: Protac activity at eEF2K/E3 ubiquitin ligase in human MDA-MB-231 cells assessed as degradation of eEF2K at 100 uM pretreated with thalidomide for 2 hrs followed by compound addition measured after 8 hrs by western blot assay; format: cell-based
[26] = test system: MDA-MB-231; test: Effect on eEF2K expression in human MDA-MB-231 cells at 10 uM measured after 2 hrs by western blot assay; format: functional, cell-based

T1 sequence (Q96SW2 whole entry, looked up, one chain of several): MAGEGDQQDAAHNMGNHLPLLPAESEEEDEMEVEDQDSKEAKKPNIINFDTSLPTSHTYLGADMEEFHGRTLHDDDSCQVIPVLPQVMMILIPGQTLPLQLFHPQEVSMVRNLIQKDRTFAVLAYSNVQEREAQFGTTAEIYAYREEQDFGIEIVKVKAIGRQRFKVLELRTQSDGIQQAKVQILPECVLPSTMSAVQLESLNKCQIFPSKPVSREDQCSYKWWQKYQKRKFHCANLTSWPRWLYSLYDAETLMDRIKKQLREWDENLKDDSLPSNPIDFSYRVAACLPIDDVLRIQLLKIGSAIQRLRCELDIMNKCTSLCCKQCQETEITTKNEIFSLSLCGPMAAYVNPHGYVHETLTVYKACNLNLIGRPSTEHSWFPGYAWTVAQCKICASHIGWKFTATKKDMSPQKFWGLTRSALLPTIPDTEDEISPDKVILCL

SMILES: NC(=O)c1cc2c(=O)n(CC(=O)NCCNc3cccc4c3C(=O)N(C3CCC(=O)NC3=O)C4=O)c(=O)n(C3CC3)c2nc1N (configuration not stated)
Activity [1]: inactive

SMILES: NC(=O)c1cc2c(=O)n(CC(=O)NCCCCCCNC(=O)COc3cccc4c3C(=O)N(C3CCC(=O)NC3=O)C4=O)c(=O)n(C3CC3)c2nc1N (configuration not stated)
Activity [1]: inactive

SMILES: Cc1ccc(C2=NC(C)(O)CC(C(C)C)[Se]2)cc1 (configuration not stated)
IC50 [2]: 0.31 µM

SMILES: NC(=O)c1cc2c(=O)n(CC(=O)NCCNC(=O)COc3cccc4c3C(=O)N(C3CCC(=O)NC3=O)C4=O)c(=O)n(C3CC3)c2nc1N (configuration not stated)
Activity [1]: inactive

SMILES: CCn1c(=O)n(CC(=O)NCCCNc2cccc3c2C(=O)N(C2CCC(=O)NC2=O)C3=O)c(=O)c2cc(C(N)=O)c(N)nc21 (configuration not stated)
Activity [1]: 20%

SMILES: CCn1c(=O)c2cc(C(N)=O)c(N)nc2n(C2CC2)c1=O
Activity [3]: Active | Activity [4]: Active

SMILES: NC(=O)c1cc2c(=O)n(CC(=O)NCCCCCNc3cccc4c3C(=O)N(C3CCC(=O)NC3=O)C4=O)c(=O)n(C3CC3)c2cc1N (configuration not stated)
Activity [1]: inactive

SMILES: NC(=O)c1cc2c(=O)n(CC(=O)NCCOCCNC(=O)COc3cccc4c3C(=O)N(C3CCC(=O)NC3=O)C4=O)c(=O)n(C3CC3)c2cc1N (configuration not stated)
Activity [1]: inactive

SMILES: CCn1c(=O)n(CC(=O)NCCOCCNc2cccc3c2C(=O)N(C2CCC(=O)NC2=O)C3=O)c(=O)c2cc(C(N)=O)c(N)cc21 (configuration not stated)
Activity [1]: 15%

SMILES: N#CC1=C(N)SC(N)=C(C#N)C1c1ccccc1F
IC50 [2]: 60 µM

SMILES: O=C1CCC(N2C(=O)c3ccccc3C2=O)C(=O)N1 (configuration not stated)
Activity [26]: inactive

SMILES: CCn1c(=O)n(CC(=O)NCCNC(=O)COc2cccc3c2C(=O)N(C2CCC(=O)NC2=O)C3=O)c(=O)c2cc(C(N)=O)c(N)nc21 (configuration not stated)
Activity [1]: 10%

Second part, led by results:

Activity [1]: 20%
SMILES: CCn1c(=O)n(CC(=O)NCCCCCCNc2cccc3c2C(=O)N(C2CCC(=O)NC2=O)C3=O)c(=O)c2cc(C(N)=O)c(N)nc21 (configuration not stated)

Activity [7]: Active | Activity [15]: Active | Activity [1]: 56.7% | Activity [19]: inactive | Activity [21]: Active | Activity [25]: inactive
SMILES: CCn1c(=O)n(CC(=O)NCCOCCNC(=O)COc2cccc3c2C(=O)N(C2CCC(=O)NC2=O)C3=O)c(=O)c2cc(C(N)=O)c(N)nc21 (configuration not stated)
viability at 200 µM [5]: 67.6% | Activity [6]: 7.38% | Activity [8]: 0.68% | Activity [9]: 1.6% | Activity [10]: 24.72% | Activity [11]: 1.57% | Activity [12]: 3.24% | viability at 100 µM [13]: 84.4% | Activity [14]: 7.51% | Activity [16]: 6.12% | viability at 50 µM [17]: 89.9% | Activity [3]: Active | Activity [18]: Active | Activity [20]: Active | Activity [22]: 5.29% | Activity [23]: Active | Activity [4]: Active | Activity [24]: Toxic

Activity [1]: inactive
SMILES: NC(=O)c1cc2c(=O)n(CC(=O)NCCCCNc3cccc4c3C(=O)N(C3CCC(=O)NC3=O)C4=O)c(=O)n(C3CC3)c2nc1N (configuration not stated)

Activity [1]: inactive
SMILES: NC(=O)c1cc2c(=O)n(CC(=O)NCCCCCCNc3cccc4c3C(=O)N(C3CCC(=O)NC3=O)C4=O)c(=O)n(C3CC3)c2nc1N (configuration not stated)

Activity [1]: 35%
SMILES: CCn1c(=O)n(CC(=O)NCCCCNc2cccc3c2C(=O)N(C2CCC(=O)NC2=O)C3=O)c(=O)c2cc(C(N)=O)c(N)nc21 (configuration not stated)

Activity [1]: inactive
SMILES: NC(=O)c1cc2c(=O)n(CC(=O)NCCOCCNc3cccc4c3C(=O)N(C3CCC(=O)NC3=O)C4=O)c(=O)n(C3CC3)c2cc1N (configuration not stated)

Activity [1]: inactive
SMILES: NC(=O)c1cc2c(=O)n(CC(=O)NCCCNC(=O)COc3cccc4c3C(=O)N(C3CCC(=O)NC3=O)C4=O)c(=O)n(C3CC3)c2cc1N (configuration not stated)

Activity [1]: inactive
SMILES: NC(=O)c1cc2c(=O)n(CC(=O)NCCCCNC(=O)COc3cccc4c3C(=O)N(C3CCC(=O)NC3=O)C4=O)c(=O)n(C3CC3)c2nc1N (configuration not stated)

Activity [1]: 24%
SMILES: CCn1c(=O)n(CC(=O)NCCCCCNc2cccc3c2C(=O)N(C2CCC(=O)NC2=O)C3=O)c(=O)c2cc(C(N)=O)c(N)cc21 (configuration not stated)

Activity [1]: 26%
SMILES: CCn1c(=O)n(CC(=O)NCCCCNC(=O)COc2cccc3c2C(=O)N(C2CCC(=O)NC2=O)C3=O)c(=O)c2cc(C(N)=O)c(N)nc21 (configuration not stated)

Activity [1]: 15.4%
SMILES: CCn1c(=O)n(CC(=O)NCCCNC(=O)COc2cccc3c2C(=O)N(C2CCC(=O)NC2=O)C3=O)c(=O)c2cc(C(N)=O)c(N)cc21 (configuration not stated)

Activity [1]: 32%
SMILES: CCn1c(=O)n(CC(=O)NCCCCCNC(=O)COc2cccc3c2C(=O)N(C2CCC(=O)NC2=O)C3=O)c(=O)c2cc(C(N)=O)c(N)cc21 (configuration not stated)

Activity [1]: inactive
SMILES: NC(=O)c1cc2c(=O)n(CC(=O)NCCCNc3cccc4c3C(=O)N(C3CCC(=O)NC3=O)C4=O)c(=O)n(C3CC3)c2nc1N (configuration not stated)

Activity [1]: inactive
SMILES: NC(=O)c1cc2c(=O)n(CC(=O)NCCCCCNC(=O)COc3cccc4c3C(=O)N(C3CCC(=O)NC3=O)C4=O)c(=O)n(C3CC3)c2cc1N (configuration not stated)

Activity [1]: inactive
SMILES: CCn1c(=O)n(CC(=O)NCCNc2cccc3c2C(=O)N(C2CCC(=O)NC2=O)C3=O)c(=O)c2cc(C(N)=O)c(N)nc21 (configuration not stated)

Activity [1]: 35.3%
SMILES: CCn1c(=O)n(CC(=O)NCCCCCCNC(=O)COc2cccc3c2C(=O)N(C2CCC(=O)NC2=O)C3=O)c(=O)c2cc(C(N)=O)c(N)nc21 (configuration not stated)

Source: ChEMBL document CHEMBL4706525, “Designing an eEF2K-Targeting PROTAC small molecule that induces apoptosis in MDA-MB-231 cells” (Eur J Med Chem, 2020)
